From patent publication US9221766B2, “Compounds as diacylglycerol acyltransferase inhibitors” (GlaxoSmithKline LLC, priority 2012, dated 2015) come the findings set out here.

A word on the IC50: it is the point on the concentration scale where inhibition reaches its midpoint.

This assay has as its target T1, Human DGAT1 (Homo sapiens, UniProt O75907).
T1 construct: made in house; host or cells: Sf9 insect cells (baculovirus); microsomes used as enzyme
T1 sequence (O75907 1-488): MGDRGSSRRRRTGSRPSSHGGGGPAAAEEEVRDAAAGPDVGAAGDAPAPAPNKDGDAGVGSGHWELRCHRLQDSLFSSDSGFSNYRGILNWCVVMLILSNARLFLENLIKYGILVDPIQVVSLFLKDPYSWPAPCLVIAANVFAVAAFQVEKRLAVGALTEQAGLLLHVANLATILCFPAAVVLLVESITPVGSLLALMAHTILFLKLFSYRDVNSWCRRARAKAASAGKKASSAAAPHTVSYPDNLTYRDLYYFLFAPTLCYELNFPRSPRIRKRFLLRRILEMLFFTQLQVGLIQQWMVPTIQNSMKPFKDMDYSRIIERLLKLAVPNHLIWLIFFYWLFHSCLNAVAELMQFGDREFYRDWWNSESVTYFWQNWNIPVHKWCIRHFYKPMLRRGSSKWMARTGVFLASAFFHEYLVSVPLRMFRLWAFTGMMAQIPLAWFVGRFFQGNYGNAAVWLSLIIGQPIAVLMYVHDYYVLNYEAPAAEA
In words: human DGAT1 lipid extraction (LE) assay, inhibition of triacylglycerol product formation. The format is biochemical. Particulars: human DGAT1 microsomes from Sf9 cells, read-out: hDGAT LE IC50. How it is done: Human DGAT1 was expressed in Sf9 insect cells using a baculovirus expression system. Microsomes were prepared and used as enzyme for in vitro inhibition testing in either of two formats measuring production of coenzyme A or tridecanoylglycerol product, respectively. All steps were performed at 21-23° C. All data for DGAT1 inhibition by test compounds were collected under conditions where product formation was linear with reaction time.
For inhibition of triacylglycerol product formation, 11 uL reactions were run in white Polyplate-384 (PerkinElmer6007300) starting with a 30 minute pre-reaction incubation of 5 uL of 2.2× enzyme and 1 uL of 100% DMSO containing test compound or control compound, {4-[4-(4-amino-7,7-dimethyl-7H-pyrimido[4,5-b][1,4]oxazin-6-yl)phenyl]cyclohexyl}acetic acid. Some assays were performed with inclusion of didecanoylglycerol in the pre-reaction incubation of test compounds and enzyme. Reactions were initiated after 30 minute pre-reaction incubation via addition of 5 uL of 2.2× substrate. Final reaction conditions consisted of 50 mM HEPES pH 7.5, 2 mM MgCl2, 1 mM CHAPS, 25 uM didecanoylglycerol, 0.5 uM decanoyl-CoA, 0.3 nCi/uL [^14C-]decanoyl-CoA or 0.5 nCi/uL [^3H]-decanoyl-CoA, 0.05-4 ug/mL microsomal protein, and 1% DMSO. Following 60 minute reaction incubation, reactions were stopped with 40 uL of 45% isopropanol and 50 mM sodium carbonate in water and mixed. Extraction of tridecanoylglycerol product was accomplished via addition of 30 uL Microscint-E (Perkin Elmer) and 2 hours of incubation (sealed). Plates were read on a Microbeta Microplate reader Inhibition was normalized to controls containing DMSO or 10 uM {4-[4-(4-amino-7,7-dimethyl-7H-pyrimido[4,5-b][1,4]oxazin-6-yl)phenyl]cyclohexyl}acetic acid. IC50s were fitted using GraphPad Prism to a sigmoidal dose response.

In the case of `Cc1ccc(Nc2cnc(-c3ccc4c(c3)CCC(CC(=O)O)(CC(F)(F)F)C4=O)cn2)nc1` (single isomer, unassigned) [Example 16, 2-(6-(5-(5-methylpyridin-2-ylamino)pyrazin-2-yl)-1-oxo-2-(2,2,2-trifluoroethyl)-1,2,3,4-tetrahydronaphthalen-2-yl)acetic acid], the IC50 is 100 to 500 nM.
Under `O=C(O)CC1(CC(F)(F)F)CCc2cc(-c3ccc(Nc4ccc(Cl)cn4)cn3)ccc2C1=O` (single isomer, unassigned) [Example 8, 2-(6-(5-(5-chloropyridin-2-ylamino)pyridin-2-yl)-1-oxo-2-(2,2,2-trifluoroethyl)-1,2,3,4-tetrahydronaphthalen-2-yl)acetic acid] stands not above 100 nM; under `Cc1ccc(Nc2ccc(-c3ccc4c(c3)CCC(CC(=O)O)(CC(F)(F)F)C4=O)nn2)cn1` (single isomer, unassigned) [Example 22, 2-(6-(6-(6-methylpyridin-3-ylamino)pyridazin-3-yl)-1-oxo-2-(2,2,2-trifluoroethyl)-1,2,3,4-tetrahydronaphtha-len-2-yl)acetic acid], not above 100 nM; under `CCC1(CC(=O)O)CCc2cc(-c3ccc(Nc4ccc(C(F)(F)F)nc4)cn3)ccc2C1=O` (single isomer, unassigned) [Example 5, 2-(2-ethyl-1-oxo-6-(5-(6-(trifluoromethyl)pyridin-3-ylamino)pyridin-2-yl)-1,2,3,4-tetrahydronaphthalen-2-yl)acetic acid], 100 to 500 nM.
In the case of `Cc1ccc(Nc2ccc(-c3ccc4c(c3)CCC(CC(=O)O)(CC(F)(F)F)C4=O)nc2)cc1` (single isomer, unassigned) [Example 9, 2-(1-oxo-6-(5-(p-tolylamino)pyridin-2-yl)-2-(2,2,2-trifluoroethyl)-1,2,3,4-tetrahydronaphthalen-2-yl)acetic acid] it was 100 to 500 nM; in that of `O=C(O)CC1(CC(F)(F)F)CCc2cc(-c3ccc(Nc4ccc(Cl)cn4)cn3)ccc2C1=O` (single isomer, unassigned) [Example 7, 2-(6-(5-(5-chloropyridin-2-ylamino)pyridin-2-yl)-1-oxo-2-(2,2,2-trifluoroethyl)-1,2,3,4-tetrahydronaphthalen-2-yl)acetic acid], not above 100 nM; in that of `O=C(O)CC1(CC(F)(F)F)CCc2cc(-c3ccc(Nc4ccc(Cl)cc4)cn3)ccc2C1=O` (single isomer, unassigned) [Example 6, 2-(6-(5-(4-chlorophenylamino)pyridin-2-yl)-1-oxo-2-(2,2,2-trifluoroethyl)-1,2,3,4-tetrahydronaphthalen-2-yl)acetic acid], not above 100 nM.
